Measured values reported in paper PMC10107299, “Neutralizing the Impact of the Virulence Factor LecA from Pseudomonas aeruginosa on Human Cells with New Glycomimetic Inhibitors” (Angewandte Chemie (International Ed. in English), 2023).
Read-outs that look alike come from different tables or passages of the source.

Tests used:
[1] = target: T1, LecA (Pseudomonas aeruginosa, UniProt Q05097); assay: Competitive binding assay based on fluorescence polarization
T1 construct: made in house
Procedure: All synthesized galactosides were then evaluated for LecA inhibition using a competitive binding assay based on fluorescence polarization (Figure S1).[24]
Expression and purification of LecA as well as competitive binding by fluorescence polarization was performed as described by Joachim et al..[9] The assay was performed in TBS/Ca2+ buffer (20 mM Tris, 137 mM NaCl, 2.6 mM KCl at pH 7.4 supplemented with 1 mM CaCl2) in presence of 25% DMSO. Averages and standard deviations were calculated from at least three independent experiments. […]
RR OR In h i b i to r [µ M ]
R R In h i b i to r [µ M ] […]
R In h i b i to r [µ M ] 30 L2
30 F2 40 K2 In h i b i to r [µ M ] […]
In h i b i to r [µ M ] In h i b i to r [µ M ]
Figure S1: Evaluation of amide divalent LecA ligands in a competitive binding assay based on fluorescence […]
representative experiment is shown or each series. Averages and standard deviations from at least three independent titrations of triplicates each.
[…] Fluorescence polarization [mP] -1 0 1 2 3 0 1001010 Me-α-Gal pNO2-Ph-β-Gal 1000 Inhibitor [µM] Fluorescence polarization [mP])

[2] = target: T1, LecA; assay: Direct binding to immobilized LecA by surface plasmon resonance (SPR); conditions: for Relative potency r.p. (SPR): compared to respective monovalent compound in each series; for kon: SPR single-cycle kinetics, 25 °C, N=3 (I1 N=1)
Procedure: K d values were oscillating with the number of methylene units present in the linker, presumably linked to the zig‐zag geometry of the hydrocarbon chain.
Expression and purification of LecA as well as competitive binding by fluorescence polarization was performed as described by Joachim et al..[9] […]
Surface plasmon resonance experiments were performed on a BIACORE X100 instrument (GE Healthcare) at 25 °C as described by Zahorska et. al..[8] Averages and standard deviations were calculated from three independent experiments. […]
Figure S3: SPR of divalent LecA ligands from benzene series. Sensorgrams obtained from SPR single-cycle kinetics experiments. Five different concentrations of each compound (0, 10, 50, 100, 200 nM) were sequentially injected to obtain the experimental sensorgrams (blue lines), which were then fitted by a 1:1 model (orange) on BIACORE evaluation software. […]
Figure S4: SPR of divalent LecA ligands from pyridine and sulfonated series. Sensorgrams obtained from SPR single-cycle kinetics experiments. Five different concentrations of each compound (0, 10, 50, 100, 200 nM) were sequentially injected to obtain the experimental sensorgrams (blue lines), which were then fitted by a 1:1 model (orange) on BIACORE evaluation software.
(also on this page, place not known: Response (RU)0 Response (RU)0 Response (RU) Response (RU) Response (RU) Response (RU) 030060090012001500) […]

T1 sequence (Q05097 whole entry): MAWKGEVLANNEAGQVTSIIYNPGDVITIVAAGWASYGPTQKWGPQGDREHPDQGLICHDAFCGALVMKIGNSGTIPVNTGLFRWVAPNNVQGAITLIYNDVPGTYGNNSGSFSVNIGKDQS

COc1ccc(NC(=O)CCc2ccc(O[C@@H]3O[C@H](CO)[C@H](O)[C@H](O)[C@H]3O)cc2)cc1 [Compound A2]
IC50 [1]: 18.9 ± 5.5 µM
Kd [2]: 5.38 ± 0.09 µM
Relative potency r.p. (SPR) [2]: 1

O=C(CCc1ccc(O[C@@H]2O[C@H](CO)[C@H](O)[C@H](O)[C@H]2O)cc1)Nc1ccc(OCOc2ccc(NC(=O)CCc3ccc(O[C@@H]4O[C@H](CO)[C@H](O)[C@H](O)[C@H]4O)cc3)cc2)cc1 [Compound C2]
IC50 [1]: 4.2 ± 1.7 µM
Kd [2]: 0.0153 ± 0.0006 µM
koff [2]: 0.00462 ± 0.0002 s⁻¹
kon [2]: 303 ± 20 x10^3/Ms
Relative potency r.p. (SPR) [2]: 352

O=C(/C=C/c1ccc(O[C@@H]2O[C@H](CO)[C@H](O)[C@H](O)[C@H]2O)cc1)Nc1ccc(OCCCOc2ccc(NC(=O)/C=C/c3ccc(O[C@@H]4O[C@H](CO)[C@H](O)[C@H](O)[C@H]4O)cc3)cn2)nc1 [Compound I1]
IC50 [1]: 6.6 ± 4 µM
Kd [2]: 0.0402 µM
koff [2]: 0.00227 s⁻¹
kon [2]: 68200 M⁻¹ s⁻¹
Relative potency r.p. (SPR) [2]: 74

O=[N+]([O-])c1ccc(O[C@@H]2O[C@H](CO)[C@H](O)[C@H](O)[C@H]2O)cc1 [pNO2-Ph-β-Gal, reference compound]
IC50 ([1]; TBS/Ca2+ buffer, 25% DMSO, divalent ligands at lower assay limit, read-out: IC50 (LecA competitive binding, fluorescence polarization)): 39.8 ± 12 µM

O=C(CCc1ccc(O[C@@H]2O[C@H](CO)[C@H](O)[C@H](O)[C@H]2O)cc1)Nc1ccc(Oc2ccc(NC(=O)CCc3ccc(O[C@@H]4O[C@H](CO)[C@H](O)[C@H](O)[C@H]4O)cc3)cc2)cc1 [Compound B2]
IC50 [1]: 3.6 ± 1.3 µM
Kd [2]: 0.0221 ± 0.0003 µM
koff [2]: 0.00349 ± 8e-05 s⁻¹
kon [2]: 158 ± 5.7 x10^3/Ms
Relative potency r.p. (SPR) [2]: 244

O=C(CCc1ccc(O[C@@H]2O[C@H](CO)[C@H](O)[C@H](O)[C@H]2O)cc1)Nc1ccc(OCCCCOc2ccc(NC(=O)CCc3ccc(O[C@@H]4O[C@H](CO)[C@H](O)[C@H](O)[C@H]4O)cc3)cc2)cc1 [Compound F2]
IC50 [1]: 4.4 ± 1.5 µM
Kd [2]: 0.0231 ± 0.011 µM
koff [2]: 0.00366 ± 0.00042 s⁻¹
kon [2]: 175 ± 55 x10^3/Ms
Relative potency r.p. (SPR) [2]: 233

O=C(/C=C/c1ccc(O[C@@H]2O[C@H](CO)[C@H](O)[C@H](O)[C@H]2O)cc1)Nc1ccc(OCCCCOc2ccc(NC(=O)/C=C/c3ccc(O[C@@H]4O[C@H](CO)[C@H](O)[C@H](O)[C@H]4O)cc3)cc2)cc1 [Compound F1]
IC50 [1]: 7.9 ± 4.8 µM
Kd [2]: 2.25 ± 0.3 µM
koff [2]: 0.00388 ± 0.00043 s⁻¹
kon [2]: 1.75 ± 0.3 x10^3/Ms
Relative potency r.p. (SPR) [2]: 2

O=C(/C=C/c1ccc(O[C@@H]2O[C@H](CO)[C@H](O)[C@H](O)[C@H]2O)cc1)Nc1ccc(Oc2ccc(NC(=O)/C=C/c3ccc(O[C@@H]4O[C@H](CO)[C@H](O)[C@H](O)[C@H]4O)cc3)cc2)cc1 [Compound B1]
IC50 [1]: 6.6 ± 1.5 µM
Kd [2]: 0.0673 ± 0.0094 µM
koff [2]: 0.00596 ± 0.00206 s⁻¹
kon [2]: 89 ± 29 x10^3/Ms
Relative potency r.p. (SPR) [2]: 77

O=C(CCc1ccc(O[C@@H]2O[C@H](CO)[C@H](O)[C@H](O)[C@H]2O)cc1)Nc1ccc(OCCCOc2ccc(NC(=O)CCc3ccc(O[C@@H]4O[C@H](CO)[C@H](O)[C@H](O)[C@H]4O)cc3)cc2)cc1 [Compound E2]
IC50 [1]: 3.5 ± 1 µM
Kd [2]: 0.0185 ± 0.0015 µM
koff [2]: 0.00345 ± 0.00013 s⁻¹
kon [2]: 187 ± 13 x10^3/Ms
Relative potency r.p. (SPR) [2]: 291

O=C(/C=C/c1ccc(O[C@@H]2O[C@H](CO)[C@H](O)[C@H](O)[C@H]2O)cc1)Nc1ccc(OCOc2ccc(NC(=O)/C=C/c3ccc(O[C@@H]4O[C@H](CO)[C@H](O)[C@H](O)[C@H]4O)cc3)cc2)cc1 [Compound C1]
IC50 [1]: 4.7 ± 2.6 µM
Kd [2]: 0.0377 ± 0.011 µM
koff [2]: 0.00379 ± 0.00089 s⁻¹
kon [2]: 110 ± 52 x10^3/Ms
Relative potency r.p. (SPR) [2]: 138

COc1ccc(NC(=O)/C=C/c2ccc(O[C@@H]3O[C@H](CO)[C@H](O)[C@H](O)[C@H]3O)cc2)cc1 [Compound A1]
IC50 [1]: 18.8 ± 6.6 µM
Kd [2]: 5.21 ± 0.6 µM
Relative potency r.p. (SPR) [2]: 1

O=C(/C=C/c1ccc(O[C@@H]2O[C@H](CO)[C@H](O)[C@H](O)[C@H]2O)cc1)Nc1ccc(OCCCOc2ccc(NC(=O)/C=C/c3ccc(O[C@@H]4O[C@H](CO)[C@H](O)[C@H](O)[C@H]4O)cc3)cc2)cc1 [Compound E1]
IC50 [1]: 4.5 ± 1.6 µM
Kd [2]: 0.156 ± 0.038 µM
koff [2]: 0.00251 ± 0.00022 s⁻¹
kon [2]: 16.9 ± 5.2 x10^3/Ms
Relative potency r.p. (SPR) [2]: 33
